The source of these data is publication PMC3759966 (The Biochemical journal, 2009).

The target of one assay is T1, SGK1 (Homo sapiens, UniProt O00141).
T1 sequence (O00141 1-431): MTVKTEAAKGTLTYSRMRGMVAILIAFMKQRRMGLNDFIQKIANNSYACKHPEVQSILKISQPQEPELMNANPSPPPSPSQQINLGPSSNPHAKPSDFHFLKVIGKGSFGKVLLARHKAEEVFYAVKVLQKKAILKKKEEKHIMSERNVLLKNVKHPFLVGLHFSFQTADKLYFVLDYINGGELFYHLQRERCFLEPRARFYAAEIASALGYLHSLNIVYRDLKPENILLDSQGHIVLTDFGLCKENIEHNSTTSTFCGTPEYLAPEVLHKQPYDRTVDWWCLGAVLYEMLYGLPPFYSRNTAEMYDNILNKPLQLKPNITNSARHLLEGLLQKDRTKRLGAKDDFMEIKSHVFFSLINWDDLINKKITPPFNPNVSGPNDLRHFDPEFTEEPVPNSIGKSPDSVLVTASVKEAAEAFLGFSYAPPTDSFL
Put plainly: Kinase profiling panel. The class given is biochemical. Particulars: read-out: percentage of kinase activity compared with control.

The next assay addresses PKCα (Homo sapiens, UniProt P17252). Put plainly: Kinase profiling panel. It is filed as biochemical. Particulars: read-out: percentage of kinase activity compared with control.
Another assay has as its target SmMLCK (Homo sapiens, UniProt Q15746). The experiment in a line: Kinase profiling panel. It is filed as biochemical. Particulars: read-out: percentage of kinase activity compared with control.
For another assay, the target named is PHK (Homo sapiens, UniProt Q16816). The experiment in a line: Kinase profiling panel. It is filed as biochemical. The settings on record: read-out: percentage of kinase activity compared with control.
PHK, sequence (Q16816 whole entry): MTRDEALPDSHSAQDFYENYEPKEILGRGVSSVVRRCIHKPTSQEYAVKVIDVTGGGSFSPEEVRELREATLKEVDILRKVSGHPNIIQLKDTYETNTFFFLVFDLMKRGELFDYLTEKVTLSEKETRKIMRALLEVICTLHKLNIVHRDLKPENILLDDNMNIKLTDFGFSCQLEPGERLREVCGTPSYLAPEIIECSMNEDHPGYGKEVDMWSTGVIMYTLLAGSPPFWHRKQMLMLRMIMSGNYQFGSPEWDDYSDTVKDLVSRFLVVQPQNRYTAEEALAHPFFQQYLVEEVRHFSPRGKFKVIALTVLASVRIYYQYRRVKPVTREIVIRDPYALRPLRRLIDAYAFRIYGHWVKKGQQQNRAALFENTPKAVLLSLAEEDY
Another assay addresses Aurora B kinase (Homo sapiens, UniProt Q96GD4). Put plainly: Kinase profiling panel. The class given is biochemical. Particulars: read-out: percentage of kinase activity compared with control.
The test system of the next assay is AMPK. The experiment in a line: Kinase profiling panel. The class given is biochemical. The settings on record: 0.1 μM inhibitor.
For a further assay, the target named is CK2 (Homo sapiens, UniProt P68400). The experiment in a line: Kinase profiling panel. It is filed as biochemical. The settings on record: read-out: percentage of kinase activity compared with control.
CK2, sequence (P68400 whole entry): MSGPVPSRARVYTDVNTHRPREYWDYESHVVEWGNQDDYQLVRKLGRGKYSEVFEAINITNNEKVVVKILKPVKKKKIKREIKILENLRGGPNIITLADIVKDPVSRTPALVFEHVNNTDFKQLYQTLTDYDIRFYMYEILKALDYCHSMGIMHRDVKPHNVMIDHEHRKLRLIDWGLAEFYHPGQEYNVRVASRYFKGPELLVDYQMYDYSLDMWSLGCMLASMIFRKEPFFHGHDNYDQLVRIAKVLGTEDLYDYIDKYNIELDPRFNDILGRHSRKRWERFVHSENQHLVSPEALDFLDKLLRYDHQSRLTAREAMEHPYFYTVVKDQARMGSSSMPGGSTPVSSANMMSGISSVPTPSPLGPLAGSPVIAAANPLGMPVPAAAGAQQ
Another assay deals with PAK4 (Homo sapiens, UniProt O96013). Put plainly: Kinase profiling panel. The class given is biochemical. Particulars: read-out: percentage of kinase activity compared with control.
A further assay addresses T2, GCK (Homo sapiens, UniProt Q12851).
T2 sequence (Q12851 1-820): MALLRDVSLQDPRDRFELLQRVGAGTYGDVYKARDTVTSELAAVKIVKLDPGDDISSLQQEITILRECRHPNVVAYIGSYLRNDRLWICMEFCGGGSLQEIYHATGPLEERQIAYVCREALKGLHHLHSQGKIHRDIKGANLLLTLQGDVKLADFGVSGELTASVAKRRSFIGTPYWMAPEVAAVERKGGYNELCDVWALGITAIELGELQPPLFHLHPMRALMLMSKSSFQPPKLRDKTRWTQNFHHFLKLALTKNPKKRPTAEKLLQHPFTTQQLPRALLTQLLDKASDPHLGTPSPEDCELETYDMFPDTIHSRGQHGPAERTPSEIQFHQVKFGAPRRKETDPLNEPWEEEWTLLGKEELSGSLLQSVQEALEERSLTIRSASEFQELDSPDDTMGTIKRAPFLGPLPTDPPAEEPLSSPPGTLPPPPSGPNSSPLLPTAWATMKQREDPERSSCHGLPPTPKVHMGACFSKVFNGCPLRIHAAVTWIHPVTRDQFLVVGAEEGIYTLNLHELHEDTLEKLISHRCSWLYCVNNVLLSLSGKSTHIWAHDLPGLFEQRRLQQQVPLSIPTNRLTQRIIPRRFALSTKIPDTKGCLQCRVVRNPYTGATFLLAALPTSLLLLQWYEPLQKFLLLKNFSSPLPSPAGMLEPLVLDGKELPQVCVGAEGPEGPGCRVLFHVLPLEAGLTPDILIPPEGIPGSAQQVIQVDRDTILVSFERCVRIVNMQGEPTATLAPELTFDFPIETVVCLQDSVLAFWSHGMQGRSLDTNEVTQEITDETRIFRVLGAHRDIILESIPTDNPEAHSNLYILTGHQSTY
Put plainly: Kinase profiling panel. Particulars: read-out: percentage of kinase activity compared with control. The class given is biochemical.

A further assay deals with T3, TTK (Homo sapiens, UniProt P33981).
T3 sequence (P33981 1-857): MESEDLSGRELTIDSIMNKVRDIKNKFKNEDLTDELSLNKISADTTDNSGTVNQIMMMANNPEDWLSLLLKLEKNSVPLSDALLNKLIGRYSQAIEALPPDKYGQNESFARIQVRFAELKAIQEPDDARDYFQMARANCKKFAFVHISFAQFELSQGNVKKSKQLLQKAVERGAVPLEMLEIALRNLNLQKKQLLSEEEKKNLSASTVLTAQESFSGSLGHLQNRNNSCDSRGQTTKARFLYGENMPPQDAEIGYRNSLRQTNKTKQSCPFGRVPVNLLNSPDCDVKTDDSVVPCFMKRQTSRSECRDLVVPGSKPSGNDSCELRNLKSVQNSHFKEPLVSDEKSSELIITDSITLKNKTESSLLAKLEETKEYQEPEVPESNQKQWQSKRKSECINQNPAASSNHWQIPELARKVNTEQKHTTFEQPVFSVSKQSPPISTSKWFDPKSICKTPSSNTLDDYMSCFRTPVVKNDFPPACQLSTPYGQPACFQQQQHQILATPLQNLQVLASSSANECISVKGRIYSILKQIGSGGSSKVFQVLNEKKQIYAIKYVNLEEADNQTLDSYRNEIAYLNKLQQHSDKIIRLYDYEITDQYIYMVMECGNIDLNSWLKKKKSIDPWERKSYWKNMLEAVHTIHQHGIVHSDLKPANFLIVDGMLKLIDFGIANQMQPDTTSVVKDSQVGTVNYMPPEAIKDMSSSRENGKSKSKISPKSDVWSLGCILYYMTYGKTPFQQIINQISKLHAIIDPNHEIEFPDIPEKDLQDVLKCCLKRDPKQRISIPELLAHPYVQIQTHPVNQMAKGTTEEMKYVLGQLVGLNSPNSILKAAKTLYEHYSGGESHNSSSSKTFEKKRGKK
Put plainly: Kinase profiling panel. The settings on record: read-out: percentage of kinase activity compared with control. It is filed as biochemical.

For another assay, the target named is FGFR1 (Homo sapiens, UniProt P11362). Put plainly: Kinase profiling panel. The class given is biochemical. Particulars: read-out: percentage of kinase activity compared with control.
FGFR1, sequence (P11362 22-822): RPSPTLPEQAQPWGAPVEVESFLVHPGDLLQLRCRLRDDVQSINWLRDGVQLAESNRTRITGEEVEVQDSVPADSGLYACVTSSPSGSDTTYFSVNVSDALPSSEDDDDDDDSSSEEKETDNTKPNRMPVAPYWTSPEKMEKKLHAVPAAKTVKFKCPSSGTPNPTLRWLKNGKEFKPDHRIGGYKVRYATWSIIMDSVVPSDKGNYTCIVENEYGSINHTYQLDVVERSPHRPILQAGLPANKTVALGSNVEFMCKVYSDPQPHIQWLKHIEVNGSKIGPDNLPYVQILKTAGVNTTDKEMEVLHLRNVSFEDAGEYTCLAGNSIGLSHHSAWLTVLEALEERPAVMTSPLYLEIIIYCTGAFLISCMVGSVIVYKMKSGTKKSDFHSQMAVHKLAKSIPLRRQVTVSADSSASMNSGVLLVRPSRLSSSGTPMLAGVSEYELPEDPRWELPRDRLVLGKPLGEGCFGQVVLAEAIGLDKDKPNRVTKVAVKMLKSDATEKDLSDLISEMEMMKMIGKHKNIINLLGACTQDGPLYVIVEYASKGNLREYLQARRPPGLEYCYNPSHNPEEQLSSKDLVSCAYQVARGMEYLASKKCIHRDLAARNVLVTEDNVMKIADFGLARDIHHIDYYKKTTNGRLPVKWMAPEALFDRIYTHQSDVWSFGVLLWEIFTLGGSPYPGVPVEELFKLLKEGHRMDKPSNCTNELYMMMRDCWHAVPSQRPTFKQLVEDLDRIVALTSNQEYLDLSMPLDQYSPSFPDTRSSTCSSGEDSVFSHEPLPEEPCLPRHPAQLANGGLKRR
The target in a further assay is IGF-1R (Homo sapiens, UniProt P08069). The experiment in a line: Kinase profiling panel. It is filed as biochemical. The settings on record: read-out: percentage of kinase activity compared with control.
IGF-1R, sequence (P08069 31-1367): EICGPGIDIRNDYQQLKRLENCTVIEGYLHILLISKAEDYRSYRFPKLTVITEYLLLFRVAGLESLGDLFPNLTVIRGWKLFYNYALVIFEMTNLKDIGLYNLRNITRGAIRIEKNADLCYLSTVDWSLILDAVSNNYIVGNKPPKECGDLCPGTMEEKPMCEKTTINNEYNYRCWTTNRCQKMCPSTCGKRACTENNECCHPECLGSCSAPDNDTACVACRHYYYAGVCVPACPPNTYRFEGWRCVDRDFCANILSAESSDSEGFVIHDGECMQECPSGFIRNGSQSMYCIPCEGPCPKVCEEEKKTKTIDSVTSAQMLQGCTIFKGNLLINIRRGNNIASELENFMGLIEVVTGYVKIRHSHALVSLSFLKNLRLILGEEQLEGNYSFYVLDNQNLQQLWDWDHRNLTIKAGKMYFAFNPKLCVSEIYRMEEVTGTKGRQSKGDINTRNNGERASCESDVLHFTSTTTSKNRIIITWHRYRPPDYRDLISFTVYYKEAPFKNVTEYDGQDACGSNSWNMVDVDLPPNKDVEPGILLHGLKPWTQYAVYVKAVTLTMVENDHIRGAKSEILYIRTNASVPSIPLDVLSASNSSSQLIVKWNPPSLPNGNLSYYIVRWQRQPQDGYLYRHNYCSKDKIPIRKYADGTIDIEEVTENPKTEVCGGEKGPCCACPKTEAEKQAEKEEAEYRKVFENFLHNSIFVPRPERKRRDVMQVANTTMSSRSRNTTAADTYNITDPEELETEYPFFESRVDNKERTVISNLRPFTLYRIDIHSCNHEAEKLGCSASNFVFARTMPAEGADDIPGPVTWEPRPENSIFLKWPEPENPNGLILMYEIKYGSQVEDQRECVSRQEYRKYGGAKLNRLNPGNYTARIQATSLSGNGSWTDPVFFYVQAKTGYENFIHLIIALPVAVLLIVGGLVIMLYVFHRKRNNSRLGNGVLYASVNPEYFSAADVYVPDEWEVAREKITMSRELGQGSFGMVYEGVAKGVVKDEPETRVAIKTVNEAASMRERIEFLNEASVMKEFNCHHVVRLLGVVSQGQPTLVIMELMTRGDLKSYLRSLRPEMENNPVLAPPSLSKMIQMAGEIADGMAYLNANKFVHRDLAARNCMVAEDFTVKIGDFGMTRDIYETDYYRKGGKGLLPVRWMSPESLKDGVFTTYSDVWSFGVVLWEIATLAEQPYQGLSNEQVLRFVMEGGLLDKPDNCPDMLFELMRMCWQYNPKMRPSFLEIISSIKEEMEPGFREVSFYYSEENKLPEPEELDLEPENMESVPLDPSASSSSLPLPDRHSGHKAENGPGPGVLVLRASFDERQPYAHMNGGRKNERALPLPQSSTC
Assay [1] concerns ERM protein phosphorylation (site equivalent to Thr567 of ezrin). The experiment in a line: ERM protein phosphorylation in HEK-293 cells. It is filed as cell-based, human. Particulars: 10 μM, 1 h; in the presence or absence of G14V-Rho.
Assay [2] concerns the target endogenous LRRK2 from Swiss-3T3 cells (Mus musculus, UniProt Q5S006). Put plainly: Kinase assay of immunoprecipitated endogenous LRRK2 with Nictide. It is filed as biochemical. The settings on record: Swiss-3T3 immunoprecipitates, Nictide substrate.
Assay [3] deals with panel of 85 protein kinases. Put plainly: Selectivity over kinase panel. It is filed as biochemical. Particulars: 1 μM; out of the 85 kinases profiled.
Another assay has as its system LRRK2. Particulars: cited from earlier work.

SmMLCK, sequence (Q15746 923-1914): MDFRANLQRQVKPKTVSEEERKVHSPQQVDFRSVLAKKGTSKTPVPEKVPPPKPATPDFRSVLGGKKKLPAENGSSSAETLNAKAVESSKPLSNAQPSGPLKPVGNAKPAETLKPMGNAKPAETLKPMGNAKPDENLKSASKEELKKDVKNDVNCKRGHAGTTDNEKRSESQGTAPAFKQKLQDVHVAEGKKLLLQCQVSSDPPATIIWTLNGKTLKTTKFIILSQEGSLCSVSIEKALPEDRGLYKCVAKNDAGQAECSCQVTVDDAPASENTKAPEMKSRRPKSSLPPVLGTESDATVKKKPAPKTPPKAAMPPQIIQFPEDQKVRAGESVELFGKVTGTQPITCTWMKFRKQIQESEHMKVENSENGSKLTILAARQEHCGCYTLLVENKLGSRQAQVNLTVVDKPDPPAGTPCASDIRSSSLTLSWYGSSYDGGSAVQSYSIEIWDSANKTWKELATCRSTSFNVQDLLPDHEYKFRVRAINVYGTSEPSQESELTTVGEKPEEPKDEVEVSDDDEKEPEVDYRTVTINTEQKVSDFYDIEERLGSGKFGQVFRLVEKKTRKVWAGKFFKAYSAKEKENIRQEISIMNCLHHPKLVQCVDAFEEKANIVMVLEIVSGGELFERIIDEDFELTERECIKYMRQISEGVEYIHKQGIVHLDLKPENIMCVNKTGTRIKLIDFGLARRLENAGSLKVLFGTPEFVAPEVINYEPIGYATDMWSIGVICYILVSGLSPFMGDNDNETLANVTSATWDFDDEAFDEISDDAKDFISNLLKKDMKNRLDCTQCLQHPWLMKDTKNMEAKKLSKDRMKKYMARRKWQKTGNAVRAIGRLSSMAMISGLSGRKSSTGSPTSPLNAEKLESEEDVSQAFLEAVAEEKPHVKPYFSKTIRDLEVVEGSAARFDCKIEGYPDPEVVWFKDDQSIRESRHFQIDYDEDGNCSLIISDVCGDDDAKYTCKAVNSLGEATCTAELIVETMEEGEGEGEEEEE
Aurora B kinase, sequence (Q96GD4 whole entry): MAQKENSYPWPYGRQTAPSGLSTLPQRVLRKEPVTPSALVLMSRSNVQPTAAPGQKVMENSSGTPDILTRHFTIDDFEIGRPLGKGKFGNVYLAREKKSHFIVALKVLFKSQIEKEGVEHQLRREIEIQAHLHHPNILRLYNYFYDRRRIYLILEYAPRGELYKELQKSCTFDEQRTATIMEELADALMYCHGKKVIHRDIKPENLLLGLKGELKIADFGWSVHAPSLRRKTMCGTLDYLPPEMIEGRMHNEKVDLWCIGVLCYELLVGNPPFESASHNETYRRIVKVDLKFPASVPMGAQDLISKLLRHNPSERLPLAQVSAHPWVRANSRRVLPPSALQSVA

Take `CCN(CC)CCNC(=O)c1c(C)[nH]c(/C=C2\C(=O)Nc3ccc(F)cc32)c1C` [Sunitinib, sunitinib]: the remaining activity at 1 µM on SGK1 is 26 ± 5%; on PKCα, 77 ± 9%; at SmMLCK, 26 ± 3%; at CK2, 72 ± 1%; on PAK4, 72 ± 5%; on GCK, 11 ± 1%. Moreover, the remaining activity at 1 µM on TTK is 72 ± 6%; on IGF-1R, 33 ± 6%. In addition, the remaining activity at 0.1 µM turned out to be 11 ± 1% on PHK, 72 ± 5% at Aurora B kinase and 77 ± 2% at FGFR1. Further, the “percentage of kinase activity compared with control” value with AMPK is listed as 51 ± 3%. Besides, in assay [1], the “effect on ERM protein phosphorylation” value is reported as “did not inhibit”. Further, the “effect on protein kinase activity in LRRK2 immunoprecipitate” value in assay [2] is “suppressed”. Also, the “number of kinases significantly inhibited” value in assay [3] is recorded as 12. For the same compound, the IC50 in the assay with LRRK2 is […].

By IC50 is commonly meant the concentration at which inhibition is half-maximal.
